Data from US20030166007A1, “Chemical proteomics” (MDS Proteomics Inc., priority 2002, published 2003).
“Also recorded” adds a separate entry of the source.

Legend:
[1] = system: purine de novo synthesis in leukemia cells; details: on treatment with Methotrexate; cited from earlier work
[2] = system: intracellular levels of PRPP; details: reversible upon treatment with hypoxanthine; cited from earlier work
[3] = molecular target: T1, muscle glycogen phosphorylase b (Homo sapiens, UniProt P11217); details: cited from earlier work
T1 sequence (P11217 1-842): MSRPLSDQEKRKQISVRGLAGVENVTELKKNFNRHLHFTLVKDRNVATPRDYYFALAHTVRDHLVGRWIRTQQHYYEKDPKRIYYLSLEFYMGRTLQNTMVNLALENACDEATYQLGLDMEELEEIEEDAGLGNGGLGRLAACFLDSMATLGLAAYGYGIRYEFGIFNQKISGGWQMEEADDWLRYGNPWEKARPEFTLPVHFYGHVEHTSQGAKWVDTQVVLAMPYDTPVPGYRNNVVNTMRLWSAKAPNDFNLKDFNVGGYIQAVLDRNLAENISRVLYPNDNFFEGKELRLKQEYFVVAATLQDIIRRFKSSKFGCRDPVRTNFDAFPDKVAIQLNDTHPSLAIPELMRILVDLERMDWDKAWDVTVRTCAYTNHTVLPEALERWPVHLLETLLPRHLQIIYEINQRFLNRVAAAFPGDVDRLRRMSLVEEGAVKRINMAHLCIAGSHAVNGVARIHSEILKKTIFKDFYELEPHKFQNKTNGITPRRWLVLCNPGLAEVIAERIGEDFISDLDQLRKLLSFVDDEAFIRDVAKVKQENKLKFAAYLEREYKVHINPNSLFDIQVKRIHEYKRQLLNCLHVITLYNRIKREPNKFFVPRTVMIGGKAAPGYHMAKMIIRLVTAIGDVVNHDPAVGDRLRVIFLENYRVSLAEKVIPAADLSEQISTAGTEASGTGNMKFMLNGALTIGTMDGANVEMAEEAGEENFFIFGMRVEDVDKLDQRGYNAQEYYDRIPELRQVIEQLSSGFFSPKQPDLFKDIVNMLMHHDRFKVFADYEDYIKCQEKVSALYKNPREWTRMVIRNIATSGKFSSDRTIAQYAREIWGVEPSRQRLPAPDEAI

[4] = molecular target: T2, Deoxyguanosine kinase (Homo sapiens, UniProt Q16854); test: MTX-agarose affinity chromatography of cell lysate, MS identification; type: binding; details: HEK 293 lysate
T2 construct: endogenous in cells; host or cells: HEK 293
T2 sequence (Q16854 40-277): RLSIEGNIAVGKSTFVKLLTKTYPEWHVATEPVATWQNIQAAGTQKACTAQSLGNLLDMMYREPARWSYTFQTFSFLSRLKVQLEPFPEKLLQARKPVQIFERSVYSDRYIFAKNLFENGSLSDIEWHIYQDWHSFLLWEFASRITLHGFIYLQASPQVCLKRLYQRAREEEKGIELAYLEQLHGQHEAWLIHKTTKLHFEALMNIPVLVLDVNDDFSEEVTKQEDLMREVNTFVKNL
Description: (§1) After incubation for 30 minutes at 4° C. with shaking, the lysates were clarified by centrifugation (27,000×g). In some experiments, cells were lysed using 20 strokes of a Dounce® homogenizer in the absence of detergents. […] While optimizing the protocol, however, several experimental variations were tested on cell lysates including concentration by ammonium sulfate precipitation, or removal of nucleic acid with Streptomycin sulfate. In such cases, the protein sample was desalted using a PD 10 protein-desalting column (Pharmacia), which had been pre-equilibrated in the same buffer (10 mM potassium phosphate pH 7.5)
(§2) Affinity Chromatography: The desalted lysate was loaded onto a column of pre-equilibrated MTX-agarose (Sigma, 50 μL bed volume) or sepharose 4B agarose as a negative control. The lysates were allowed to slowly flow through the matrix under gravity flow. […] Retentates from the microcons were then loaded onto SDS-PAGE 4%-15% gradient mini gels (Bio-Rad). […]
(§3) The peptides were then separated by reverse phase chromatography on C18 resin and directly injected into a mass spectrometer using an automated sample-loading device from 96 well plates. […] The spectra generated were analyzed on a custom-built multi-node server platform (RADARS, ProteoMetrics), which uses two database searching programs, Sonar (ProteoMetrics) and Mascot (Matrix Sciences). […]

[5] = molecular target: T3, Deoxycytidine Kinase (Homo sapiens, UniProt P27707); test: as above; type: binding; details: HEK 293 lysate
T3 construct: endogenous in cells; host or cells: HEK 293
T3 sequence (P27707 whole entry): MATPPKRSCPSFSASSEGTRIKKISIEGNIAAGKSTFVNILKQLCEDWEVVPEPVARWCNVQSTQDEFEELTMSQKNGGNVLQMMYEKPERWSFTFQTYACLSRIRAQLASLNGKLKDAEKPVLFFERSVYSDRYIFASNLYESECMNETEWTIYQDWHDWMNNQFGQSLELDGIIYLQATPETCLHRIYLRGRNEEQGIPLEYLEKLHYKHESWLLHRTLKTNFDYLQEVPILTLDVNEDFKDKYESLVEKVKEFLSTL
Description: as §1, §2, §3

[6] = system: Glycinamideribonucleotide synthase (GARS); test: as above; type: binding, human; details: HEK 293 lysate; 110 kDa trifunctional protein and separate 50 kDa band
Description: as §1, §2, §3

[7] = molecular target: T4, Nudix 1 (Homo sapiens, UniProt P36639); test: as above; type: binding; details: HEK 293 lysate
T4 construct: endogenous in cells; host or cells: HEK 293
Description: as §1, §2, §3

[8] = molecular target: T5, Pyridoxal Kinase (Homo sapiens, UniProt O00764); test: as above; type: binding; details: HEK 293 lysate
T5 construct: endogenous in cells; host or cells: HEK 293
T5 sequence (O00764 1-312): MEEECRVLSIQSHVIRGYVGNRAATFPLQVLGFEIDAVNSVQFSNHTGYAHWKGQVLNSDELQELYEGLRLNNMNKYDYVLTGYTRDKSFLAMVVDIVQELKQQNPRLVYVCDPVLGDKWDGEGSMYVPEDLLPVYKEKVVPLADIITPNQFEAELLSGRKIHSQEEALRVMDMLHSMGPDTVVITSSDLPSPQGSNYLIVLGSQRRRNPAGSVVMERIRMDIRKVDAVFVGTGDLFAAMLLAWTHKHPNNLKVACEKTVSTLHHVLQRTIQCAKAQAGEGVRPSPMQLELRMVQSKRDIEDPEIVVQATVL
Description: as §1, §2, §3

[9] = molecular target: T6, Glutathione synthase (Homo sapiens, UniProt P48637); test: as above; type: binding; details: HEK 293 lysate
T6 construct: endogenous in cells; host or cells: HEK 293
T6 sequence (P48637 1-474): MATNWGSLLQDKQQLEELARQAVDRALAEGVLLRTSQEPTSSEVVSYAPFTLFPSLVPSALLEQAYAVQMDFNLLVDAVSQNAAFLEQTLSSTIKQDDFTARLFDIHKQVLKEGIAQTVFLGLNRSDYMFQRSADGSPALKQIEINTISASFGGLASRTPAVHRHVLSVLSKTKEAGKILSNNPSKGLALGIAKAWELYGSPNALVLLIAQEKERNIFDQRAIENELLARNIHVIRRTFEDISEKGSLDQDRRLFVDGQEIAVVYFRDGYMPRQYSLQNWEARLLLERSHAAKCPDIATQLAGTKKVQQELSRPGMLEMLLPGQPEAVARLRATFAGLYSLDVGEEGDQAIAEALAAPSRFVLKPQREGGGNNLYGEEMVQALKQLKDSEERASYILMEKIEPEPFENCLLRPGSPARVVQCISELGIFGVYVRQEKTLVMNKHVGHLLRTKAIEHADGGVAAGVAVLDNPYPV
Description: as §1, §2, §3

CN(Cc1cnc2nc(N)nc(N)c2n1)c1ccc(C(=O)N[C@@H](CCC(=O)O)C(=O)O)cc1 [Methotrexate]
accumulation of 5-phosphoribosyl-1-pyrophosphate [1]: 3-4 fold | de novo purine pathway [1]: completely blocked | effect on levels of PRPP [2]: raising the intracellular levels of PRPP; also recorded: increase on levels of PRPP | inhibition of muscle glycogen phosphorylase b [3]: reversible inhibitors | Protein identified by Mass Spec.; New MTX interactor [4]: binds to Methotrexate through a direct interaction | Protein identified by Mass Spec.; New MTX interactor ([4]; listed as MTX): ✓ | Association with the Methotrexate matrix [5]: indirect interaction with Methotrexate | Association with the Methotrexate matrix [6]: GARS-derived peptides were isolated | Association with the Methotrexate matrix [7]: consistently found | Protein identified by Mass Spec.; New MTX interactor [8]: direct binder of Methotrexate | Protein identified by Mass Spec.; New MTX interactor ([8]; listed as MTX): ✓ | Association with the Methotrexate matrix [9]: consistently found
